Experimental data published in US20250311722A1, “IMPROVED BIOCIDE” (Purgos ApS, priority 2022, published 2025).
Values joined by “and” are separate entries in the source; they are usually repeats but may differ in a detail not shown here. Equal values may be shown once.

Tests used:
Type in all cases: cell-based
[1] = test system: Candida albicans ISI 1226; assay: Minimum bactericidal concentration (MBC); set-up: MBC data (outgrowth): unit not given here
Excerpt: (§1) Even when no growth is detectable in the MIC tests, it is possible that the microorganisms have survived the treatment i.e., they are not killed but just prevented from growing. In order to test for survivors, MBC plates were subsequently made from the MIC plates.

Bacillus cereus ISI 842 = assay: Minimum bactericidal concentration (MBC); set-up: MBC data (outgrowth): unit not given here
Excerpt: as §1

[2] = test system: Streptococcus termophilus ISI 1563; assay: Minimum bactericidal concentration (MBC); set-up: MBC data (outgrowth): unit not given here
Excerpt: as §1

[3] = test system: Pseudomonas aeruginosa ISI 1462; assay: Minimum bactericidal concentration (MBC); set-up: MBC data (outgrowth): unit not given here
Excerpt: as §1

[4] = test system: Lactobacillus brevis ISI 2269; assay: Minimum bactericidal concentration (MBC); set-up: MBC data (outgrowth): unit not given here
Excerpt: as §1

[5] = test system: Coriolus versicolor. CTB 863 A; assay: EN 113 test against wood destroying basidiomycetes; details: for Corrected mass loss, Mean / Mass loss, Mean: mean of blocks; for Corrected mass loss / Mass loss: single blocks
Protocol: EN 113, 2020: Durability of wood and wood-based products-Test method against wood destroying basidiomycetes. Assessment of biocidal efficacy of wood preservatives. […] The impregnation process was carried out on 24-03-2021 with the following conditions: Pre-vacuum at 0.1 bar for 30 minutes. Pressure of 13 bars for 60 minutes. Beech (Fagus sylvatica L.) for white rot fungi (Coriolus versicolor) with an average density 725 kg/m3. 4 weeks according to EN 113 at 65% RH and 20° C. until stable mass was obtained. Ionising radiation (2× 25 kGy).

Vaccinia = assay: ASTM E1052 Kill Time Screen test, antiviral activity
[6] = test system: Candida albicans ISI 1226; assay: Minimal inhibitory concentration (MIC)
Protocol: (§2) Minimum inhibitory concentrations (MICs) are defined as the lowest concentration of an antimicrobial that will inhibit the visible growth of a microorganism after a standardized incubation. In the present study, MIC assay was performed by pipetting robot. The principle is that an indicator microorganism at a defined cell density is cultured with a range of concentrations of the test compound, one concentration pr, well in a row on the microtiter plate. For bacteria and yeasts the minimal inhibitory concentration was detected as no increase of optical density (OD), for moulds microtiter plates were read visually. Each indicator organism is tested in duplicate and the MIC is calculated as the average of the two determinations. The tested concentrations of the antimicrobial substances were 2-fold dilutions from 5%. All indicator organisms (see Table 2.) were pre-cultivated in a suitable growth medium and diluted in the same medium to give a final concentration in the assay of ˜1×10^3 cfu/ml. The microtiter plates were incubated under specific incubation conditions (see Table III). [table]

[7] = test system: Listeria monocytogenes ISI 22; assay: Minimal inhibitory concentration (MIC)
Protocol: as §2

[8] = test system: Pseudomonas aeruginosa ISI 1462; assay: Minimal inhibitory concentration (MIC)
Protocol: as §2

[9] = test system: Salmonella Infantis ISI 170; assay: Minimal inhibitory concentration (MIC)
Protocol: as §2

CCCCN(CCO)CCO [NBDA, N-butyldiethanolamine]
MBC (%) [1]: 1.25%
MBC data (outgrowth) ([1]; 0.02% NBDA): 1.332 and 1.357
MBC data (outgrowth) ([1]; 0.04% NBDA): 1.291 and 1.314
MBC data (outgrowth) ([1]; 0.08% NBDA): 1.278 and 1.314
MBC data (outgrowth) ([1]; 0.16% NBDA): 1.171 and 1.485
MBC data (outgrowth) ([1]; 0.31% NBDA): 1.168 and 1.175
MBC data (outgrowth) ([1]; 1.25% NBDA): 0.079 and 0.080
MBC data (outgrowth) ([1]; 2.50% NBDA): 0.074 and 0.075
MBC data (outgrowth) ([1]; 5.00% NBDA): 0.068
MBC (%) (Bacillus cereus ISI 842): 1.25%
MBC data (outgrowth) (Bacillus cereus ISI 842; 0.02% NBDA): 1.261 and 1.253
MBC data (outgrowth) (Bacillus cereus ISI 842; 0.04% NBDA): 1.106 and 1.352
MBC data (outgrowth) (Bacillus cereus ISI 842; 0.08% NBDA): 1.098 and 1.118
MBC data (outgrowth) (Bacillus cereus ISI 842; 0.16% NBDA): 1.286 and 1.086
MBC data (outgrowth) (Bacillus cereus ISI 842; 0.31% NBDA): 1.277 and 1.161
MBC data (outgrowth) (Bacillus cereus ISI 842; 0.63% NBDA): 1.117 and 1.001
MBC data (outgrowth) (Bacillus cereus ISI 842; 1.25% NBDA): 0.075 and 0.076
MBC data (outgrowth) (Bacillus cereus ISI 842; 2.50% NBDA): 0.072 and 0.078
MBC data (outgrowth) (Bacillus cereus ISI 842; 5.00% NBDA): 0.066
MBC (%) [2]: 1.25%
MBC data (outgrowth) ([2]; 0.02% NBDA): 0.346 and 0.323
MBC data (outgrowth) ([2]; 0.04% NBDA): 0.307 and 0.283
MBC data (outgrowth) ([2]; 0.08% NBDA): 0.311 and 0.304
MBC data (outgrowth) ([2]; 0.16% NBDA): 0.251 and 0.232
MBC data (outgrowth) ([2]; 0.31% NBDA): 0.802 and 0.522
MBC data (outgrowth) ([2]; 0.63% NBDA): 0.277 and 0.427
MBC data (outgrowth) ([2]; 1.25% NBDA): 0.072
MBC data (outgrowth) ([2]; 2.50% NBDA): 0.070 and 0.068
MBC data (outgrowth) ([2]; 5.00% NBDA): 0.062 and 0.058
MBC (%) [3]: 1.25%
MBC data (outgrowth) ([3]; 0.02% NBDA): 1.360 and 2.248
MBC data (outgrowth) ([3]; 0.04% NBDA): 2.186 and 1.311
MBC data (outgrowth) ([3]; 0.08% NBDA): 1.779 and 2.051
MBC data (outgrowth) ([3]; 0.16% NBDA): 1.680 and 2.303
MBC data (outgrowth) ([3]; 0.31% NBDA): 1.477 and 1.570
MBC data (outgrowth) ([3]; 0.63% NBDA): 1.909 and 1.789
MBC data (outgrowth) ([3]; 1.25% NBDA): 0.071 and 0.070
MBC data (outgrowth) ([3]; 2.50% NBDA): 0.071 and 0.069
MBC data (outgrowth) ([3]; 5.00% NBDA): 0.066 and 0.061
MBC (%) [4]: 0.31%
MBC data (outgrowth) ([4]; 0.02% NBDA): 0.446 and 0.463
MBC data (outgrowth) ([4]; 0.04% NBDA): 0.439 and 0.455
MBC data (outgrowth) ([4]; 0.08% NBDA): 0.447 and 0.470
MBC data (outgrowth) ([4]; 0.16% NBDA): 0.755 and 1.060
MBC data (outgrowth) ([4]; 0.31% NBDA): 0.078 and 0.077
MBC data (outgrowth) ([4]; 0.63% NBDA): 0.208 and 0.248
MBC data (outgrowth) ([4]; 1.25% NBDA): 0.077
MBC data (outgrowth) ([4]; 2.50% NBDA): 0.075 and 0.077
MBC data (outgrowth) ([4]; 5.00% NBDA): 0.067 and 0.068
Toxic value, Retention of product ([5]; Beech): >15.40 kg/m^3
Toxic value, Solution conc. ([5]; Beech): >2.20 % w/w
Corrected mass loss, Mean ([5]; solution conc. 0.55 % w/w): 26.8%
Mass loss, Mean ([5]; solution conc. 0.55 % w/w): 26.8%
Corrected mass loss ([5]; solution conc. 0.55 % w/w): 32.3% and 27.5% and 25.6% and 21.8%
Mass loss ([5]; solution conc. 0.55 % w/w): 32.3% and 27.5% and 25.6% and 21.8%
Corrected mass loss, Mean ([5]; solution conc. 0.78 % w/w): 31.8%
Mass loss, Mean ([5]; solution conc. 0.78 % w/w): 31.7%
Corrected mass loss ([5]; solution conc. 0.78 % w/w): 26.0% and 25.1% and 31.3% and 44.7%
Mass loss ([5]; solution conc. 0.78 % w/w): 25.9% and 25.0% and 31.2% and 44.6%
Corrected mass loss, Mean ([5]; solution conc. 1.09 % w/w): 31.2%
Mass loss, Mean ([5]; solution conc. 1.09 % w/w): 30.9%
Corrected mass loss ([5]; solution conc. 1.09 % w/w): 30.5% and 29.8% and 29.4% and 34.9%
Mass loss ([5]; solution conc. 1.09 % w/w): 30.2% and 29.5% and 29.2% and 34.6%
Corrected mass loss, Mean ([5]; solution conc. 1.55 % w/w): 28.3%
Mass loss, Mean ([5]; solution conc. 1.55 % w/w): 27.4%
Corrected mass loss ([5]; solution conc. 1.55 % w/w): 28.6% and 26.8% and 27.3% and 30.3%
Mass loss ([5]; solution conc. 1.55 % w/w): 27.8% and 25.9% and 26.4% and 29.5%
Corrected mass loss, Mean ([5]; solution conc. 2.20 % w/w): 25.7%
Mass loss, Mean ([5]; solution conc. 2.20 % w/w): 24.1%
Mean log reduction after 60 seconds (Vaccinia; 1.0% NBDA): 0.17
Mean log reduction after 60 seconds (Vaccinia; 5.0% NBDA): 0.09
MIC (%) [6]: 0.63%
MIC data (optical density) ([6]; 0.02% NBDA): 1.272 and 1.291
MIC data (optical density) ([6]; 0.04% NBDA): 1.243 and 1.259
MIC data (optical density) ([6]; 0.08% NBDA): 1.223 and 1.256
MIC data (optical density) ([6]; 0.16% NBDA): 1.118 and 1.134
MIC data (optical density) ([6]; 0.31% NBDA): 0.886 and 0.984
MIC data (optical density) ([6]; 0.63% NBDA): 0.056
MIC data (optical density) ([6]; 1.25% NBDA): 0.051 and 0.050
MIC data (optical density) ([6]; 2.50% NBDA): 0.047 and 0.046
MIC data (optical density) ([6]; 5.00% NBDA): 0.042 and 0.044
MIC (%) [7]: 1.25%
MIC data (optical density) ([7]; 0.02% NBDA): 1.182 and 1.216
MIC data (optical density) ([7]; 0.04% NBDA): 1.184 and 1.216
MIC data (optical density) ([7]; 0.08% NBDA): 1.165 and 1.119
MIC data (optical density) ([7]; 0.16% NBDA): 1.074 and 0.574
MIC data (optical density) ([7]; 0.31% NBDA): 1.027 and 0.645
MIC data (optical density) ([7]; 0.63% NBDA): 0.938 and 0.759
MIC data (optical density) ([7]; 1.25% NBDA): 0.047 and 0.048
MIC data (optical density) ([7]; 2.50% NBDA): 0.046 and 0.056
MIC data (optical density) ([7]; 5.00% NBDA): 0.045 and 0.056
MIC (%) [8]: 0.63%
MIC data (optical density) ([8]; 0.02% NBDA): 1.725 and 1.921
MIC data (optical density) ([8]; 0.04% NBDA): 1.894 and 1.661
MIC data (optical density) ([8]; 0.08% NBDA): 1.938 and 1.871
MIC data (optical density) ([8]; 0.16% NBDA): 1.888 and 1.911
MIC data (optical density) ([8]; 0.31% NBDA): 1.668 and 1.319
MIC data (optical density) ([8]; 0.63% NBDA): 0.047 and 0.044
MIC data (optical density) ([8]; 1.25% NBDA): 0.045 and 0.043
MIC data (optical density) ([8]; 2.50% NBDA): 0.046 and 0.047
MIC data (optical density) ([8]; 5.00% NBDA): 0.045
MIC (%) [9]: 1.25%
MIC data (optical density) ([9]; 0.02% NBDA): 1.662 and 1.413
MIC data (optical density) ([9]; 0.04% NBDA): 1.501 and 1.629
MIC data (optical density) ([9]; 0.08% NBDA): 1.640 and 1.623
MIC data (optical density) ([9]; 0.16% NBDA): 1.566 and 1.546
MIC data (optical density) ([9]; 0.31% NBDA): 1.389 and 1.282
MIC data (optical density) ([9]; 0.63% NBDA): 0.905 and 0.965
MIC data (optical density) ([9]; 1.25% NBDA): 0.046 and 0.040
MIC data (optical density) ([9]; 2.50% NBDA): 0.047 and 0.044
MIC data (optical density) ([9]; 5.00% NBDA): 0.044 and 0.043
